In US6130220A, “Sulfamide-metalloprotease inhibitors” (Syntex (USA) Inc., priority 1999, dated 2000):

Key:
TNF-α = test: Inhibition of LPS induced TNF-α production in mice in vivo; conditions: s.c. compound, LPS 50 μg/mouse i.p. 1 h later, blood after 1.5 h
Experimental: The activity of compounds of this invention in inhibiting the TNF-α release was determined, using a minor modification of the methods described in Zanetti, G.; Heumann, D., et. al., "Cytokine production after intravenous or peritoneal Gram-negative bacterial challenge in mice" J. Immunol., 148, 1890, (1992) and Sekut, L., Menius, J. A., et. al., "Evaluation if the significance of elevated levels of systemic and localized tumor necrosis factor in different animal models of inflammation" J. Lab. Clin. Med., 124, 813, (1994).
Female Balbic mice were anesthetized and injected subcutaneously with the test compounds dissolved in CMC vehicle or hydroxypropylmethyl cellulose based vehicle. Control animals received only the vehicle. After 1 h, LPS (50 μg/mouse, Sigma #13129, Sigma Chemical Co., St. Louis, Mo.) was injected intraperitoneally. After 1.5 h, blood was collected from the retro-rbital plexus region of the animals in a miicrotainer serum separator tube (Becton Dickinson, Cat. No. #5960, Becton Dickinson & Co., Franklin Lakes, N.J.). The sera was separated and the amount of TNF-α was determined using the EM-TNFA® kit (Endogen, Woburn, Mass.) by following the manufacturer's protocol.

[1] = test system: TNF-α release from Human Monomac 6 cells; test: Inhibition of TNF release in vitro, Monomac 6 cells, LPS/PMA; assay type: cell-based; conditions: 2 h; for inhibition at 10 µM: MONO-MAC-6, 10 μM, read-out: TNF-α % inhibition, Conc. 10 μM; for inhibition at 2 µM: MONO-MAC-6, 2 μM, read-out: TNF-α % inhibition, Conc. 2 μM
Experimental: The activity of compounds of this invention in inhibiting the TNF release was determined, using the a minor modification of the method described in Pradines-Figueres, A. and Raetz, C. R. H., J. Biol. Chem., 267 (32), 23261, (1992).
Human Monomac 6 cells (Ziegler-Heitbrock, H. W. L., et al., Int. J. Cancer, 41, 456, (1988)) were cultured at 37° C. in RPMI 1640 medium containing 10% fetal calf serum to a density of 1×10^5 cells/ml. 0.23 ml of these cells were placed in each well of a tissue culture plate and the cells were incubated for 15 min. The test compounds were dissolved in above mentioned medium and added and the incubation was continued for an additional 15 min. 10 μl of an lipopolysaccharide/phorbol-12-myristate-13-acetate (LPS/PMA) mixture was added such that the final concentration of lipopolysaccharide was 10 ng/ml and the final concentration of phorbol-12-myristate-13-acetate was 30 ng/ml. The cells were incubated for 2 h after which the plate was centrifuged and the medium was removed and analyzed for TNF content. The analysis was performed using a TNF Quantikine® Inmunoassay (R & D Systems, Minneapolis, Minn. 55413) by following the manufacturer's protocol.
The TNF-α inhibitory activity of test materials, i.e., the measure of the TNF-α content in the test group relative to the vehicle treated group (control group) was: […]

Collagenase-III = test: MMP enzymatic assay, hydrolysis of MCA-Pro-Leu-Gly-Leu-DPA-Ala-Arg-NH2, Collagenase-III; assay type: biochemical; conditions: 37° C., pH 7.5, 2.5% DMSO
Experimental: The propeptide and catalytic domain portion of human collagenase-3 was expressed in E. Coli as an N-terminal fusion protein with ubiquitin. After purification, the catalytic domain was released by treatment with 1 mM APMA for 1 hour at 37° C., and then purified by zinc chelate chromatography.
Rat collagenase-3 was purified in active form from the culture media of uterine smooth muscle cells as described in Roswit, W. T. et al., Arch. Biochem. Biophys., 225, 285-295 (1983).
The matrix metalloprotease inhibitory activity of compounds of this invention in vitro was determined based on the hydrolysis of MCA-Pro-Leu-Gly-Leu-DPA-Ala-Arg-NH2 (Bachem, Inc.) at 37° C. as described in Knight, C. G., et al., FEBS Lett., 296, 263-266 (1992).
The matrix metalloprotease enzyme was diluted with assay buffer (50 mM Tricine pH 7.5, 200 mM NaCl, 10 mM CaCl2, and 0.005% Brij-35) containing 10 μmole of above substrate dissolved in DMSO. Compounds of the invention dissolved in DMSO or only DMSO (control samples) were added such that the final DMSO concentration in all assays was 2.5%. The fluorescence changes were monitored with a Perkin-Elmer LS-50B flourimeter using an excitation wavelength of 328 nm and an emission wavelength of 393 nm.

| IC50 (Collagenase-III) [nM] | SMILES | TNF-α % inhibition (TNF-α) [%] | inhibition at 10 µM [1] [%] | inhibition at 2 µM [1] [%] |
| --- | --- | --- | --- | --- |
| 0.19 | CC(=O)N1CCN(S(=O)(=O)N2CCC(C(=O)c3ccc(Cl)cc3)CC2)C(C(=O)NO)C1 (racemic) [compound 255, N-hydroxy-4-acetyl-1-[4-(4-chlorobenzoyl)piperidine-1-sulfonyl]piperazine-2-(RS)-carboxamide] |  | 97 |  |
| 33 | O=C(NO)C1CCCCN1S(=O)(=O)N1CCC(c2c[nH]c3cc(Cl)ccc23)CC1 (racemic) [compound 256, N-hydroxy-1-[4-(6-chloroindol-3-yl)piperidine-1-sulfonyl]piperidine-2-(RS)-carboxamide] |  | 79 |  |
| 0.063 | O=C(NO)C1CCCCN1S(=O)(=O)N1CCC(c2noc3cc(F)ccc23)CC1 (racemic) [compound 286, N-hydroxy-1-[4-(6-fluorobenzisoxazol-3-yl)piperidine-1-sulfonyl]piperidine-2-(RS)-carboxamide] |  |  |  |
| 0.2 | CN(C)C(=O)N1CCN(S(=O)(=O)N2CCC(C(=O)c3ccc(Cl)cc3)CC2)[C@@H](C(=O)NO)C1 [compound 298, N-hydroxy-1-[4-(4-chlorobenzoyl)piperidine-1-sulfonyl]-4-(N,N-dimethylaminocarbonyl)piperazine-2-(R)-carboxamide] |  |  | 70 |
| 0.1 | CN(C)S(=O)(=O)N1CCN(S(=O)(=O)N2CCC(C(=O)c3ccc(Cl)cc3)CC2)[C@@H](C(=O)NO)C1 [compound 315, N-hydroxy-1-[4-(4-chlorobenzoyl)piperidine-1-sulfonyl]-4-(N,N-dimethylaminosulfonyl)piperazine-2-(R)-carboxamide] |  |  | 86 |
| 2.1 | O=C(NO)C1(NS(=O)(=O)N2CCN(c3ccc(Cl)cn3)CC2)CCCCC1 [compound 342] |  |  |  |
| 6.6 | O=C(NO)C1(NS(=O)(=O)N2CCN(c3ccc(Cl)cc3)CC2)CCCCC1 [compound 345, N-hydroxy-1-{[4-(4-chlorophenyl)piperazine-1-sulfonyl]amino}-cyclohexane-1-carboxamide] |  |  |  |
| 56 | CN(Cc1ccccc1)S(=O)(=O)N(CC(=O)NO)Cc1ccccc1 [compound 355] |  | < 15 |  |
| 0.19 | C[C@@H](NS(=O)(=O)N1CC=C(c2ccc(Cl)cc2)CC1)C(=O)NO [compound 401] |  | 97 |  |
| 3400 | C[C@@H](NS(=O)(=O)N1CCN(c2ccc(Cl)cc2)CC1)C(=O)O [compound 414, 2-(R)-{[4-(4-chlorophenyl)piperazino-1-sulfonyl]amino}propionic acid] |  |  |  |
| 890 | CN(Cc1ccccc1)S(=O)(=O)N(CC(=O)O)Cc1ccccc1 [compound 430, 2-[benzyl-(benzylmethylaminosulfonyl)amino]acetic acid] |  |  |  |
| 6500 | C[C@H](C(=O)O)N(Cc1ccccc1)S(=O)(=O)NCc1ccccc1 [compound 431] |  |  |  |

Further lines, the molecule ahead of its results:

| SMILES | IC50 (Collagenase-III) [nM] | TNF-α % inhibition (TNF-α) [%] | inhibition at 10 µM [1] [%] | inhibition at 2 µM [1] [%] |
| --- | --- | --- | --- | --- |
| O=C(NO)C1CCCCN1S(=O)(=O)N1CCCCC1 (racemic) [compound 233] |  | 46 |  |  |
| O=C(NO)C1CCCCN1S(=O)(=O)N1CCN(c2ccc(Cl)cc2)CC1 (racemic) [compound 234, N-hydroxy-1-[4-(4-chlorophenyl)piperazine-1-sulfonyl]piperidine-2-(RS)-carboxamide] |  | 46 |  |  |
| O=C(NO)C1CCCCN1S(=O)(=O)N1CCC(c2c[nH]c3ccc(F)cc23)CC1 (racemic) [compound 254, N-hydroxy-1-[4-(5-fluoroindol-3-yl)piperidine-1-sulfonyl]piperidine-2-(RS)-carboxamide] | 181 |  | 94 |  |
| O=C(NO)C1CCCCN1S(=O)(=O)N1CC=C(c2ccc(Cl)cc2)CC1 (racemic) [compound 375, N-hydroxy-1-[4-(4-chlorophenyl)-1,2,3,6-tetrahydropyridine-1-sulfonyl]piperidine-2-(RS)-carboxamide] |  |  |  | 85 |
| Cc1cc(C2=CCN(S(=O)(=O)N3CCN(C(=O)OCc4ccccc4)CC3C(=O)NO)CC2)ccc1F (racemic) [compound 381, N-hydroxy-4-benzyloxycarbonyl-1-[4-(4-fluoro-3-methylphenyl)-1,2,3,6-tetrahydropyridine-1-sulfonyl]piperazine-2-(RS)-carboxamide] |  |  |  | 10 |
| Cc1cc(C2=CCN(S(=O)(=O)N3CCN(C(=O)OC(C)(C)C)CC3C(=O)NO)CC2)ccc1F (racemic) [compound 384] |  |  | 96 |  |
| CC(C)[C@H](C(=O)NO)N(Cc1ccccc1)S(=O)(=O)N1CCCCC1 [compound 1, N-hydroxy-2-(R)-[benzyl-(piperidine-1-sulfonyl)amino]-3-methylbutyramide] | 660 |  |  |  |
| COCCN(CC(=O)NO)S(=O)(=O)N1CCN(c2ccc(Cl)cc2)CC1 [compound 16] | 21 |  | < 15 |  |
| O=C(NO)[C@H](CSCc1ccccc1)NS(=O)(=O)N1CCN(c2ccc(Cl)cn2)CC1 [compound 102] | 0.92 |  | 56 |  |
| CC(C)[C@H](C(=O)NO)N(CCCc1cccnc1)S(=O)(=O)N1CCC(Oc2ccc(Br)cc2)CC1 [compound 105] | 0.59 |  | 20 |  |
| CC(C)[C@@H](NS(=O)(=O)N1CCC(c2nc(-c3ccccc3)c[nH]2)CC1)C(=O)NO [compound 133, N-hydroxy-2-(R)-{[4-(4-phenylirnidazol-2-yl)piperidine-1-sulfonyl]amino}-3-methylbutyramide] | 18 |  | 32 |  |
| CC(C)[C@@H](NS(=O)(=O)N1CCC(C(=O)c2ccc(Cl)cc2)CC1)C(=O)NO [compound 134] |  | 42 |  |  |
| C[C@@H](NS(=O)(=O)N1CCN(C(=O)Nc2ccc(Cl)cc2)CC1)C(=O)NO [compound 177, N-hydroxy-2-(R)-{[4-(4-chlorophenylaminocarbonyl)piperazine-1-sulfonyl]amino}propionamide] | 1.6 |  | < 15 |  |
| C[C@@H](NS(=O)(=O)N1CCC(c2cccc3ccccc23)CC1)C(=O)NO [compound 216] |  | 41 |  |  |
| O=C(NO)[C@H]1CCCCN1S(=O)(=O)N1CCCC1 [compound 232, N-hydroxy-1-(pyrrolidine-1-sulfonyl)piperidine-2-(R)-carboxamide] |  | 73 |  |  |
| CN(C)C(=O)N1CCN(S(=O)(=O)N2CCC(c3ccc(F)cc3)CC2)[C@@H](C(=O)NO)C1 [compound 313, N-hydroxy-4-(N,N-dimethylaminocarbonyl)-1-[4-(4-fluorophenyl)piperidine-1-sulfonyl]piperazine-2-(R)-carboxamide] |  |  |  | 73 |
| O=C(NO)[C@H]1CCCCN1S(=O)(=O)N1CCc2c([nH]c3ccccc23)C1 [compound 314, N-hydroxy-1-[1,2,3,4-tetrahydro-beta-carboline-2-sulfonyl]piperidine-2-(R)-carboxamide] |  |  |  | 72 |
| O=C(c1ccc(Cl)cc1)C1CCN(S(=O)(=O)N2CCN(C(=O)c3cnccn3)C[C@@H]2C(=O)NO)CC1 [compound 319, N-hydroxy-1-[4-(4-chlorobenzoyl)piperidine-1-sulfonyl]-4-(1,4-pyrazin-2-yl-carbonyl)-piperazine-2-(R)-carboxamide] |  | 50 |  | 81 |
| O=C(NO)C(NS(=O)(=O)N1CC=C(c2ccc(Cl)cc2)CC1)c1ccc(F)cc1 (centres unmarked) [compound 409] |  |  | 86 |  |
